Common to all, as to assay: combination Emax (second highest fraction inhibited in the dose matrix, 72 h); higher = more inhibition; extreme values may be limits of the assay
In assay [1] the test system is LU-165 (Small Cell Lung Carcinoma). In a few lines: (§1)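 After 24 hours at 37°C and 5% CO2 in 1536-well plates, cells in DMEM/F12 or RPMI plus 10% FBS received two-drug dose matrices for 72 hours. Viability came from CellTiter-Glo 2.0 luminescence and was scaled as inhibition, anchored at 0 by vehicle wells and at 1 by blank wells. Combination Emax is taken as the second-highest inhibition in the matrix, and Bliss excess as the observed combination effect less EA + EB − EA·EB, with EA and EB the single-agent effects.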

Assay [2] has as its system PEO1 (Ovarian Carcinoma). Put shortly:
as §1

Assay [3] has as its system NCI-H441 (Lung Adenocarcinoma). In a few lines:
as §1

The test system of assay [4] is JHH-2 (Hepatocellular Carcinoma). In a few lines: as §1
Assay [5] relates to SK-HEP-1 (Hepatocellular Carcinoma). Put shortly: as §1
Assay [6] has as its system CGTH-W-1 (Thyroid Gland Carcinoma). Put shortly:
as §1

In assay [7] the test system is JHU-022 (Oral Cavity Carcinoma). In a few lines: as §1
Assay [8] deals with A2780 (Ovarian Carcinoma). In a few lines:
as §1

Assay [9] concerns NCI-H2087 (Lung Adenocarcinoma). Put shortly:
as §1

Assay [10] has as its system HCC1395 (Breast Carcinoma). Put shortly:
as §1

Assay [11] relates to MDA-MB-436 (Breast Carcinoma). Put shortly: as §1
The subject of assay [12] is EW-7 (Ewing's Sarcoma). In a few lines:
as §1

Assay [13] relates to SW620 (Colorectal Carcinoma). Put shortly:
as §1

The subject of assay [14] is NCI-H1703 (Squamous Cell Lung Carcinoma). Put shortly:
as §1

Assay [15] has as its system EB2 (Burkitt's Lymphoma). Put shortly:
as §1

Assay [16] has as its system 769-P (Kidney Carcinoma). In a few lines:
as §1

In assay [17] the test system is IM-9 (Non-Cancerous). In a few lines: as §1
Assay [18] relates to WM1552C (Melanoma). Put shortly: as §1
For assay [19], the system named is NCI-H1651 (Lung Adenocarcinoma). Put shortly:
as §1

For assay [20], the system named is MHH-ES-1 (Ewing's Sarcoma). Put shortly:
as §1

Experimental findings from the supplement of paper PMC11061612 are described below.

As to `C[C@@H](c1ccc2nccn2c1)n1nnc2ncc(-c3cnn(C)c3)nc21` [Savolitinib] + CC1(C)CCC(CN2CCN(c3ccc(C(=O)NS(=O)(=O)c4ccc(NCC5CCOCC5)c([N+](=O)[O-])c4)c(Oc4cnc5[nH]ccc5c4)c3)CC2)=C(c2ccc(Cl)cc2)C1 [Venetoclax] (first compound max 1 µM, 7x7, partner max 1 µM), the “combination Emax” value in [1] amounted to 0.221; in [2], 0.219; in assay [3] it was 0.171; in assay [4] it was 0.0863; in assay [5] it was 0.164; in [6], 0.0942. For the same compound, the “combination Emax” value in [7] worked out at 0.257; in assay [8], 0.14; in assay [9] it was 0.184; in assay [10] it was 0.247; in assay [11] it was 0.28; in assay [12] it was 0.118. Besides, the “combination Emax” value is 0.124 in [13]; 0.139 in [14]; 0.153 in assay [15]; 0.0824 in assay [16]; 0.385 in assay [17]; 0.0794 in assay [18]. For the same compound, the “combination Emax” value in assay [19] was determined as 0.186; in [20] it was 0.185.

Regarding `C[C@@H](c1ccc2nccn2c1)n1nnc2ncc(-c3cnn(C)c3)nc21` [Savolitinib] + Cc1c2c(nn1C)CSCc1cc(n(C)n1)CSc1cc(c3ccccc3c1)OCCCc1c(C(=O)O)n(C)c3c-2c(Cl)ccc13 [AZD5991] (first compound max 1 µM, 7x7, partner max 1 µM), the “combination Emax” value in [1] was found to be 0.213; in assay [2] it was 0.218; in assay [3] it was 0.221; in [4], 0.142; in assay [5], 0.237; in assay [6] it was 0.173. Also, the “combination Emax” value in assay [7] is 0.132; in [8], 0.499; in assay [9] it was 0.204; in assay [10], 0.478; in assay [11], 0.18; in assay [12], 0.133. Also, the “combination Emax” value in assay [13] worked out at 0.167; in assay [14] it was 0.852; in assay [15] it was 0.208; in assay [16] it was 0.158; in assay [17] it was 0.573; in [18] it was 0.554. The entries for the “combination Emax” value in assay [19] and in assay [20] were 0.183 and 0.38, respectively.
